# Test system: IL-1β, IL-6, IL-8, IL-17, IL-18, IL-23, IL-36 and TNF-α
# Test: Serum pro-inflammatory cytokine assays (Luminex, ELISA) in the imiquimod model
# Format: in vivo, female Balb/c mice
# Conditions: imiquimod-induced mice
# Experimental: Immediately after the TEWL measurements on D14, mice are maintained under gas anesthesia and blood is taken from each mouse by intracardiac puncture. Blood samples are placed at +4° C. for 20 to 30 minutes before being centrifuged at 3000 rpm and +4° C. for 20 minutes. Serum is collected, frozen at −20° C. and then stored at −80° C. awaiting serum biomarkers assays (cytokines).
# Assays of the 8 pro-inflammatory cytokines IL-1β, IL-6, IL-8, IL-17, IL-18, IL-23, IL-36 and TNF-α associated with psoriasis and other inflammatory diseases is performed on the isolated and frozen serum samples from blood collected at the end of the experiment on mice of the 7 experimental groups 1 to 7.
# The Luminex® technique using magnetic beads technology and ProcartaPlex® immunoassay kit from the Invitrogen division of Thermofisher Scientific is used to perform the assays of the 7 multiplexed cytokines IL-1β, IL-6, IL-8, IL-17, IL-18, IL-23, and TNF-α. Analyte-specific antibodies for the 7 cytokines is pre-coated onto color-coded magnetic microparticles. Microparticles, standards and serum samples (non-diluted as recommended in the instruction manual) is pipetted into wells and the immobilized antibodies bind the analytes of interest. After washing away any unbound substances, a biotinylated antibody cocktail specific to the analytes of interest is added to each well. Following a wash to remove any unbound biotinylated antibody, streptavidin-phycoerythrin conjugate (Streptavidin-PE), which binds to the biotinylated antibody, is added to each well. A final wash removes unbound Streptavidin-PE and the microparticles is resuspended in buffer and read using a Bio-Rad Bio-Plex 200 Analyzer. A magnet in the analyzer captures and holds the superparamagnetic microparticles in a monolayer. Two spectrally distinct Light Emitting Diodes (LED) illuminate the microparticles. One LED identifies the analyte detected and the second LED determines the magnitude of the PE-derived signal, which is in direct proportion to the amount of the analyte bound. Each well is imaged with a Charged Coupled Device (CCD) camera. A representative standard curve from the 7 cytokines is diluted in a serial fourfold steps in specific standard buffer. Each standard, control and serum sample is analyzed in duplicate.
# Quantitative sandwich Enzyme-Linked ImmunoSorbent Assay (ELISA) using mouse IL-36 immunoassay kit from the Invitrogen division of Thermofisher Scientific is used to perform the assay. A purified anti-mouse polyclonal antibody against the specific antigen IL-36 pre-coated onto a microplate is used. Standard, control, and serum samples, as recommended in the instruction manual, are pipetted into the wells and any mouse specific antigen present is bound by the immobilized antibody. After washing away any unbound substances, a biotin-conjugated anti-mouse IL-36 antibody is incubated in each well. Then, after washing, streptavidin-Horseradish Peroxidase (HRP) complex is added to the wells, allowing non-covalent biological interaction with biotin. Following several washes to remove any unbound complex, a TetraMethylBenzidine (TMB) substrate solution is added to the wells. The enzyme reaction yields a blue product that turns yellow when the stop solution is added. The intensity of the colour is measured at 450 nm and 570 nm using a microplate reader. The values of 570 nm are subtracted from those of 450 nm and data is in proportion to the amount of […] bound in the initial step. The serum samples values are then read off the standard curves. A representative standard curve from IL-36 is diluted in a serial two folds step in assay buffer. Each standard, control and serum sample is analyzed in duplicate.
smiles,measurement,setting,value
Cn1cc(-c2cccc(O)c2Oc2ccccc2)c2cc[nH]c2c1=O [BETi1],"Inflammatory Biomarkers, Mean score values, IL-1β","D14, listed as BETi1 0.001%",49.00 pg/mL
same,"Inflammatory Biomarkers, Mean score values, IL-6","D14, listed as BETi1 0.001%",123.25 pg/mL
same,"Inflammatory Biomarkers, Mean score values, IL-8","D14, listed as BETi1 0.001%",41.82 pg/mL
same,"Inflammatory Biomarkers, Mean score values, IL-17","D14, listed as BETi1 0.001%",74.77 pg/mL
same,"Inflammatory Biomarkers, Mean score values, IL-18","D14, listed as BETi1 0.001%",241.77 pg/mL
same,"Inflammatory Biomarkers, Mean score values, IL-23","D14, listed as BETi1 0.001%",51.02 pg/mL
same,"Inflammatory Biomarkers, Mean score values, IL-36","D14, listed as BETi1 0.001%",65.63 pg/mL
same,"Inflammatory Biomarkers, Mean score values, TNF-α","D14, listed as BETi1 0.001%",36.20 pg/mL
same,"Inflammatory Biomarkers, Mean score values, IL-1β","D14, listed as BETi1 0.1%",24.31 pg/mL
same,"Inflammatory Biomarkers, Mean score values, IL-6","D14, listed as BETi1 0.1%",56.29 pg/mL
same,"Inflammatory Biomarkers, Mean score values, IL-8","D14, listed as BETi1 0.1%",21.40 pg/mL
same,"Inflammatory Biomarkers, Mean score values, IL-17","D14, listed as BETi1 0.1%",25.08 pg/mL
same,"Inflammatory Biomarkers, Mean score values, IL-18","D14, listed as BETi1 0.1%",138.90 pg/mL
same,"Inflammatory Biomarkers, Mean score values, IL-23","D14, listed as BETi1 0.1%",20.66 pg/mL
same,"Inflammatory Biomarkers, Mean score values, IL-36","D14, listed as BETi1 0.1%",26.91 pg/mL
same,"Inflammatory Biomarkers, Mean score values, TNF-α","D14, listed as BETi1 0.1%",18.27 pg/mL
same,"Inflammatory Biomarkers, Mean score values, IL-1β","D14, listed as BETi1 1.0%",39.46 pg/mL
same,"Inflammatory Biomarkers, Mean score values, IL-6","D14, listed as BETi1 1.0%",96.09 pg/mL
same,"Inflammatory Biomarkers, Mean score values, IL-8","D14, listed as BETi1 1.0%",23.50 pg/mL
same,"Inflammatory Biomarkers, Mean score values, IL-17","D14, listed as BETi1 1.0%",54.13 pg/mL
same,"Inflammatory Biomarkers, Mean score values, IL-18","D14, listed as BETi1 1.0%",202.85 pg/mL
same,"Inflammatory Biomarkers, Mean score values, IL-23","D14, listed as BETi1 1.0%",33.19 pg/mL
same,"Inflammatory Biomarkers, Mean score values, IL-36","D14, listed as BETi1 1.0%",52.58 pg/mL
same,"Inflammatory Biomarkers, Mean score values, TNF-α","D14, listed as BETi1 1.0%",25.05 pg/mL
same,"Inflammatory Biomarkers, Mean score values, IL-1β","D14, listed as BETi10.01%",32.62 pg/mL
same,"Inflammatory Biomarkers, Mean score values, IL-6","D14, listed as BETi10.01%",74.31 pg/mL
same,"Inflammatory Biomarkers, Mean score values, IL-8","D14, listed as BETi10.01%",30.82 pg/mL
same,"Inflammatory Biomarkers, Mean score values, IL-17","D14, listed as BETi10.01%",33.44 pg/mL
same,"Inflammatory Biomarkers, Mean score values, IL-18","D14, listed as BETi10.01%",146.86 pg/mL
same,"Inflammatory Biomarkers, Mean score values, IL-23","D14, listed as BETi10.01%",30.04 pg/mL
same,"Inflammatory Biomarkers, Mean score values, IL-36","D14, listed as BETi10.01%",30.38 pg/mL
same,"Inflammatory Biomarkers, Mean score values, TNF-α","D14, listed as BETi10.01%",22.16 pg/mL

# From patent publication US20250339409A1, “USES OF PAN BET INHIBITORS” (VYNE THERAPEUTICS INC., priority 2021, published 2025)
